ChEMBL document CHEMBL4811240, “Discovery of N-substituted sulfamoylbenzamide derivatives as novel inhibitors of STAT3 signaling pathway based on Niclosamide” (Eur J Med Chem, 2021)
Calls of active or inactive are those of the source. The calls are words filed in the database; no cut-off is given here.

How the values were obtained:
HCT-116 [1] = assay: Antiproliferative activity against human HCT-116 cells assessed as inhibition of cell viability after 48 hrs by MTT assay; assay type: functional, cell-based; conditions: HCT-116, 48 h
SW480 [2] = assay: Antiproliferative activity against human SW480 cells assessed as inhibition of cell viability at 10 uM after 48 hrs by MTT assay relative to control; assay type: functional
MDA-MB-231 [3] = assay: Antiproliferative activity against human MDA-MB-231 cells assessed as inhibition of cell viability at 10 uM after 48 hrs by MTT assay relative to control; assay type: functional
HCT-116 [4] = assay: Antiproliferative activity against human HCT116 cells assessed as inhibition of cell viability at 10 uM after 48 hrs by MTT assay relative to control; assay type: functional
[5] = Lipophilicity, log P of the compound; assay type: physicochemical; conditions: octanol/water
L3.6pl = assay: Antiproliferative activity against human L3.6 cells assessed as inhibition of cell viability at 10 uM after 48 hrs by MTT assay relative to control; assay type: functional
SW480 [6] = assay: Antiproliferative activity against human SW480 cells assessed as inhibition of cell viability after 48 hrs by MTT assay; assay type: functional, cell-based; conditions: SW480, 48 h
MDA-MB-231 [7] = assay: Antiproliferative activity against human MDA-MB-231 cells assessed as inhibition of cell viability after 48 hrs by MTT assay; assay type: functional, cell-based; conditions: MDA-MB-231, 48 h
MDA-MB-231 [8] = assay: Induction of apoptosis in human MDA-MB-231 cells assessed as apoptotic cells at 10 uM measured after 24 hrs by annexinV-FITC/propidium iodide staining based flow cytometry analysis (reference value: 2.49%); assay type: functional
[9] = biological target: Signal transducer and activator of transcription 3 (Homo sapiens) (UniProt P40763); assay: Inhibition of STAT3 promoter activity in human MDA-MB-231 cells at 1 uM incubated for 24 hrs by dual luciferase reporter assay; assay type: cell-based
MDA-MB-231 [10] = assay: Inhibition of human MDA-MB-231 cells migration a 1000 nM after 24 hrs by crystal violet staining based transwell migration assay; assay type: functional, cell-based

Signal transducer and activator of transcription 3 (Homo sapiens), sequence (P40763 whole entry): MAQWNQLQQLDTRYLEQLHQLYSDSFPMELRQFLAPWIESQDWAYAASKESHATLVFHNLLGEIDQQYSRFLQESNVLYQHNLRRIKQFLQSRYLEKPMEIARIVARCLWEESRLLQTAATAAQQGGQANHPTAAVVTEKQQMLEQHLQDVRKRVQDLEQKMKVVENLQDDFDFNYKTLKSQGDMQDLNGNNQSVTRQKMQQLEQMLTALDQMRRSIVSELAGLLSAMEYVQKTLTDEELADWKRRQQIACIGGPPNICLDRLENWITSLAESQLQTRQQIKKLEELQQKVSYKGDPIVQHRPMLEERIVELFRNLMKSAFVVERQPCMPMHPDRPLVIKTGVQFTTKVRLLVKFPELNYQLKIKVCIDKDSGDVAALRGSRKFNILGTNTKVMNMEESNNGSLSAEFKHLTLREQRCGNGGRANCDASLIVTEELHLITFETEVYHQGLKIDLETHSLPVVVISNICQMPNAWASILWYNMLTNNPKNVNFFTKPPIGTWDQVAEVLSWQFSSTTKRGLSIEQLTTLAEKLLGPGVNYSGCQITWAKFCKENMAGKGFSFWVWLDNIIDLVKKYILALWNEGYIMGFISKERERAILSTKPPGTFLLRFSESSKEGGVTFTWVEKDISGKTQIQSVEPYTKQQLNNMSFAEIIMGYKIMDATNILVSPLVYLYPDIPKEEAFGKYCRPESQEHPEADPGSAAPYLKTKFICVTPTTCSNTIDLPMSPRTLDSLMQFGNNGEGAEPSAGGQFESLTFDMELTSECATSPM

| IC50 (HCT-116 [1]) | logP [5] | IC50 (SW480 [6]) | IC50 (MDA-MB-231 [7]) | inhibition [9] | Structure (SMILES) | inhibition at 10 µM (SW480 [2]) | inhibition at 10 µM (MDA-MB-231 [3]) | inhibition at 10 µM (HCT-116 [4]) | inhibition at 10 µM (L3.6pl) | Activity (MDA-MB-231 [8]) | inhibition (MDA-MB-231 [10]) |
| --- | --- | --- | --- | --- | --- | --- | --- | --- | --- | --- | --- |
| 11.2 µM | 0.96 | > 20 µM | 13.6 µM | – | COc1cccc(NC(=O)c2cccc(S(N)(=O)=O)c2)c1 | 28.3% | 57.6% | 51.4% | 15.2% | – | – |
| > 20 µM | 1.77 | > 20 µM | > 20 µM | – | COc1ccccc1CNC(=O)c1ccc(Cl)c(S(N)(=O)=O)c1 | 42.8% | 35% | 50% | 17.3% | – | – |
| 19.1 µM | 2.73 | > 20 µM | 14.3 µM | – | NS(=O)(=O)c1cc(C(=O)Nc2ccc([N+](=O)[O-])cc2Cl)ccc1Cl | 38.2% | 56.3% | 49.5% | 12.3% | – | – |

More lines, now with the values behind:

| Structure (SMILES) | IC50 (HCT-116 [1]) | logP [5] | IC50 (SW480 [6]) | IC50 (MDA-MB-231 [7]) | inhibition [9] | inhibition at 10 µM (SW480 [2]) | inhibition at 10 µM (MDA-MB-231 [3]) | inhibition at 10 µM (HCT-116 [4]) | inhibition at 10 µM (L3.6pl) | Activity (MDA-MB-231 [8]) | inhibition (MDA-MB-231 [10]) |
| --- | --- | --- | --- | --- | --- | --- | --- | --- | --- | --- | --- |
| NS(=O)(=O)c1cccc(NC(=O)c2ccc(Cl)c(S(N)(=O)=O)c2)c1 | 17.2 µM | 1.19 | > 20 µM | 11.9 µM | – | 34.3% | 52.8% | 52.2% | 12.1% | – | – |
| COc1cc(NC(=O)c2cccc(S(N)(=O)=O)c2)c(C(=O)O)cc1OC | > 20 µM | 0.37 | > 20 µM | 17.9 µM | – | 22.9% | 52.1% | 22.1% | 23.3% | – | – |
| O=C(Nc1ccc([N+](=O)[O-])cc1Cl)c1cc(Cl)ccc1O [NICLOSAMIDE] | – | 3.17 | – | 0.8 µM | 88.2% | 76.8% | 91.5% | 73.8% | 66.2% | 19.91% | Active |
